Results: PMC5702617, “Novel peptide probes to assess the tensional state of fibronectin fibers in cancer” (Nature Communications, 2017)

What was measured:
PC-3-bearing mice [1] = assay: Biodistribution in PC-3 tumor grafted mice; assay type: in vivo, mouse; conditions: PC-3 grafted mice, i.v. 150 kBq (2.4 nmol, 100 µL PBS), γ counter, mean ± SD, n = 4
Procedure: Experiments were performed 3–4 weeks after inoculation.
(§1) For the biodistribution experiments, PC-3 tumor grafted mice were injected into the tail vein with 150 kBq ^111In-FnBPA5 or ^111In-scrambled FnBPA5 (2.4 nmol, 100 µL PBS). For each peptide, groups of four mice were sacrificed at 1, 4, 24, and 96 h post injection. Blocking experiment (n = 4) was performed by injection of an excess of peptide (100 µg, 24 nmol in 100 µL PBS) directly before the administration of the corresponding radiolabeled peptide. The organs were collected, weighed and counted for activity with a γ counter (Packard Cobra II Auto, Gamma, PerkinElmer AG, Schwerzenbach, Switzerland) 4 h p.i. The results were expressed as a percentage of injected activity per gram of tissue (% IA per g tissue). The Student's t test analyses were considered as type 3 (two sample unequal variance) and statistical significance was assumed for p-values smaller than 0.05.

PC-3-bearing mice [2] = assay: In vivo blocking experiment in PC-3 tumor grafted mice; design: species or system mouse
Procedure: as §1

PC-3-bearing mice [3] = assay: SPECT/CT imaging of PC-3-bearing mice; assay type: in vivo, mouse
Procedure: Thirty-three days from the inoculation of the tumor cells, the mice were intravenously injected with ~15 MBq ^111In-FnBPA5 resp. ^111In-scrambled FnBPA5-NODAGA (2.4 nmol, 100 µL PBS) into the tail vein. […] The images were reconstituted and processed with InVivoScope® software (Bioscan Inc., Washington DC, USA).

[4] = 10-fold excess of unlabeled FnBPA5 (24 nmol) pre-injected, 4 h p.i.
[5] = 4h p.i. blocking: corresponding unlabeled peptide (24 nmol) i.v. directly before the radiolabeled peptide, PC-3 grafted mice, mean ± SD, n = 4

Which “Biodistribution, Bone” value (PC-3-bearing mice [1]; 24 h p.i.) does the source give for `CC[C@H](C)[C@H](NC(=O)CNC(=O)[C@H](CCCCN)NC(=O)[C@@H](NC(=O)[C@H](CO)NC(=O)[C@H](CCC(=O)O)NC(=O)[C@H](CCC(=O)O)NC(=O)[C@H](CC(=O)O)NC(=O)[C@H](Cc1ccccc1)NC(=O)[C@H](CCC(=O)O)NC(=O)[C@@H](NC(=O)[C@H](CC(C)C)NC(=O)[C@H](CC(N)=O)NC(=O)[C@H](CO)NC(=O)[C@H](CCC(=O)O)NC(=O)[C@@H](NC(=O)[C@@H](NC(=O)[C@@H](NC(=O)[C@H](CCC(N)=O)NC(=O)CNC(=O)CNC(=O)CNC(=O)[C@@H](N)CSC1CC(=O)N(CCNC(=O)CCC(C(=O)O)N2CCN(CC(=O)O)CCN(CC(=O)O)CC2)C1=O)C(C)C)[C@@H](C)O)[C@@H](C)O)C(C)C)[C@@H](C)O)C(=O)N[C@H](C(=O)N[C@H](C(=O)NCC(=O)N[C@@H](C)C(=O)N[C@H](C(=O)N[C@@H](CO)C(=O)N[C@@H](CC(=O)O)C(=O)N[C@@H](Cc1c[nH]cn1)C(=O)N[C@H](C(=O)N[C@H](C(=O)N[C@H](C(=O)N[C@@H](CCC(=O)O)C(=O)N[C@@H](CC(=O)O)C(=O)N[C@H](C(=O)N[C@@H](CCCCN)C(=O)O)[C@@H](C)O)C(C)C)[C@@H](C)O)[C@@H](C)O)C(C)C)[C@@H](C)O)C(C)C` (stereo partly shown) [111In-FnBPA5, metal not drawn] here?
The value was 0.86 ± 0.117 IA% / g.

What about the “Biodistribution, Heart” value (PC-3-bearing mice [1]; 24 h p.i.) of the same molecule?
Its value is 0.31 ± 0.025 IA% / g.

What about the “Biodistribution, Intestines” value (PC-3-bearing mice [1]; 24 h p.i.) of the same molecule?
The value was 0.57 ± 0.039 IA% / g.

And the “Biodistribution, Kidneys” value (PC-3-bearing mice [1]; 24 h p.i.)?
Its value is 92.36 ± 14.25 IA% / g.

What about the “Biodistribution, Liver” value (PC-3-bearing mice [1]; 24 h p.i.) of the same molecule?
The value was 1.64 ± 0.26 IA% / g.

What about the “Biodistribution, Lung” value (PC-3-bearing mice [1]; 24 h p.i.) of the same molecule?
Its value is 1.05 ± 0.11 IA% / g.

What about the “Biodistribution, Muscle” value (PC-3-bearing mice [1]; 24 h p.i.) of the same molecule?
Its value is 0.24 ± 0.034 IA% / g.

And the “Biodistribution, Pancreas” value (PC-3-bearing mice [1]; 24 h p.i.)?
Its value is 0.78 ± 0.47 IA% / g.

What about the “Biodistribution, Spleen” value (PC-3-bearing mice [1]; 24 h p.i.) of the same molecule?
The value was 1.38 ± 0.068 IA% / g.

What about the “Biodistribution, Stomach” value (PC-3-bearing mice [1]; 24 h p.i.) of the same molecule?
Its value is 0.51 ± 0.15 IA% / g.

And the “Biodistribution, Tumor” value (PC-3-bearing mice [1]; 24 h p.i.)?
Its value is 3.59 ± 0.53 IA% / g.

And the “Biodistribution, Blood” value (PC-3-bearing mice [1]; 96 h p.i.)?
Its value is 0.06 ± 0.027 IA% / g.

What about the “Biodistribution, Bone” value (PC-3-bearing mice [1]; 96 h p.i.) of the same molecule?
Its value is 0.50 ± 0.09 IA% / g.

And the “Biodistribution, Heart” value (PC-3-bearing mice [1]; 96 h p.i.)?
Its value is 0.14 ± 0.017 IA% / g.

What about the “Biodistribution, Intestines” value (PC-3-bearing mice [1]; 96 h p.i.) of the same molecule?
Its value is 0.13 ± 0.02 IA% / g.

What about the “Biodistribution, Kidneys” value (PC-3-bearing mice [1]; 96 h p.i.) of the same molecule?
Its value is 39.69 ± 4.79 IA% / g.

What about the “Biodistribution, Liver” value (PC-3-bearing mice [1]; 96 h p.i.) of the same molecule?
The value was 0.89 ± 0.12 IA% / g.

What about the “Biodistribution, Lung” value (PC-3-bearing mice [1]; 96 h p.i.) of the same molecule?
The value was 0.32 ± 0.038 IA% / g.

What about the “Biodistribution, Muscle” value (PC-3-bearing mice [1]; 96 h p.i.) of the same molecule?
The value was 0.095 ± 0.02 IA% / g.

What about the “Biodistribution, Pancreas” value (PC-3-bearing mice [1]; 96 h p.i.) of the same molecule?
Its value is 0.18 ± 0.046 IA% / g.

And the “Biodistribution, Spleen” value (PC-3-bearing mice [1]; 96 h p.i.)?
Its value is 0.73 ± 0.417 IA% / g.

What about the “Biodistribution, Stomach” value (PC-3-bearing mice [1]; 96 h p.i.) of the same molecule?
The value was 0.31 ± 0.052 IA% / g.

And the “Biodistribution, Tumor” value (PC-3-bearing mice [1]; 96 h p.i.)?
The value was 1.87 ± 0.773 IA% / g.

What about the “effect of pre-injection of unlabeled peptide on accumulation” value (PC-3-bearing mice [2]; 24 nmol unlabeled peptide pre-injected, 4 h p.i., Student's t test, n = 4) of the same molecule?
Its value is “significant reduction”.

And the “blocking effect on uptake, liver” value (PC-3-bearing mice [2]; [4])?
Its value is −58.2%.

And the “blocking effect on uptake, tumor tissue” value (PC-3-bearing mice [2]; [4])?
The value was −35.6%.

What about the “Biodistribution with blocking, Blood” value (PC-3-bearing mice [2]; [5]) of the same molecule?
The value was 0.29 ± 0.074 IA% / g.

What about the “Biodistribution with blocking, Bone” value (PC-3-bearing mice [2]; [5]) of the same molecule?
Its value is 0.73 ± 0.31 IA% / g.

What about the “Biodistribution with blocking, Heart” value (PC-3-bearing mice [2]; [5]) of the same molecule?
The value was 0.37 ± 0.080 IA% / g.

And the “Biodistribution with blocking, Intestines” value (PC-3-bearing mice [2]; [5])?
Its value is 0.53 ± 0.137 IA% / g.

What about the “Biodistribution with blocking, Kidneys” value (PC-3-bearing mice [2]; [5]) of the same molecule?
The value was 175.80 ± 32.48 IA% / g.

And the “Biodistribution with blocking, Liver” value (PC-3-bearing mice [2]; [5])?
Its value is 1.61 ± 0.56 IA% / g.

And the “Biodistribution with blocking, Lung” value (PC-3-bearing mice [2]; [5])?
The value was 0.95 ± 0.317 IA% / g.

And the “Biodistribution with blocking, Muscle” value (PC-3-bearing mice [2]; [5])?
The value was 0.20 ± 0.12 IA% / g.

And the “Biodistribution with blocking, Pancreas” value (PC-3-bearing mice [2]; [5])?
The value was 0.96 ± 0.384 IA% / g.

And the “Biodistribution with blocking, Spleen” value (PC-3-bearing mice [2]; [5])?
Its value is 1.33 ± 0.402 IA% / g.

And the “Biodistribution with blocking, Stomach” value (PC-3-bearing mice [2]; [5])?
The value was 1.13 ± 0.14 IA% / g.

And the “Biodistribution with blocking, Tumor” value (PC-3-bearing mice [2]; [5])?
The value was 2.91 ± 0.70 IA% / g.

What about the “SPECT/CT distribution” value (PC-3-bearing mice [3]; ~15 MBq (2.4 nmol, 100 µL PBS) i.v., up to 96 h p.i.) of the same molecule?
Its value is “mainly accumulated in the kidneys”.

What about the “SPECT/CT distribution after kidney removal” value (PC-3-bearing mice [3]; ~15 MBq i.v., 96 h p.i., post mortem, kidneys removed) of the same molecule?
The value was “predominant uptake in the tumor, liver, and spleen”.
